Results taken from patent US8841321B2, “Quinoline derivatives as antibacterial agents” (Janssen Pharmaceutica NV, priority 2005, dated 2014).
≈ marks a conversion by molar mass, not a printed value.

Key:
Assay in all cases: Microtitre plate assay, IC90 determination
Assay type in all cases: cell-based
[1] = system: EFA 29212 (Enterococcus faecalis (ATCC29212)); conditions: Enterococcus faecalis (ATCC29212)
[2] = system: STA 29213 (Staphylococcus aureus (ATCC29213)); conditions: for IC90 (μg/ml) STA 29213: Staphylococcus aureus (ATCC29213)
Outline: (§1)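 Growth-inhibition endpoint: resazurin added 3 h after inoculation, plates incubated overnight, fluorescence at 530/590 nm after 24 h at 37 °C. Inocula of roughly 10–60 CFU per well in Mueller-Hinton medium; compounds titrated five-fold. IC90 reported as μg/ml.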

[3] = system: SPN 6305 (Streptococcus pneumoniae (ATCC6305)); conditions: for IC90 (μg/ml) SPN 6305: Streptococcus pneumoniae (ATCC6305); for IC90: Streptococcus pneumoniae, ATCC6305, Streptococcus pneumoniae (ATCC6305), read-out: IC90 (μg/ml) SPN 6305
Outline: as §1

[4] = system: PAE 27853 (Pseudomonas aeruginosa (ATCC27853)); conditions: Pseudomonas aeruginosa (ATCC27853)
[5] = system: SPY 8668 (Streptococcus pyogens (ATCC8668)); conditions: Streptococcus pyogens (ATCC8668)
[6] = system: STA RMETH (methicilline resistant Staphylococcus aureus (MRSA), a clinical isolate from the University of Antwerp); conditions: for IC90: Staphylococcus aureus, MRSA, read-out: IC90 (μg/ml) STA RMETH

Row | SMILES | IC90 (μg/ml) EFA 29212 [1] | IC90 (μg/ml) STA 29213 [2] | IC90 (μg/ml) SPN 6305 [3] | IC90 (μg/ml) PAE 27853 [4] | IC90 (μg/ml) SPY 8668 [5] | IC90 (μg/ml) STA RMETH [6] | IC90 [6] | IC90 [3] | IC90 ([2]; Staphylococcus aureus, ATCC29213, Staphylococcus aureus (ATCC29213), read-out: IC90 (μg/ml) STA 29213)
1 | CNCCCCC(O)(c1ccc2ccccc2c1)C(c1ccccc1)c1cc2cc(Br)ccc2nc1OC (racemic) [Compound 74] | 9.03 µg/mL (≈ 15.9 µM) | 11.36 µg/mL (≈ 19.9 µM) | 0.9 µg/mL (≈ 1.58 µM) | 10.13 µg/mL (≈ 17.8 µM) | 9.03 µg/mL (≈ 15.9 µM) | – | – | – | –
2 | COc1nc2ccc(Br)cc2cc1C(c1ccccc1)C(O)(CCCCN(C)Cc1ccccc1)c1ccc2ccccc2c1 (racemic) [Compound 76] | – | – | 2.34 µg/mL (≈ 3.55 µM) | – | 10.46 µg/mL (≈ 15.9 µM) | – | – | – | –
3 | COc1nc2c(C)c(Br)ccc2cc1C(c1ccccc1)C(O)(CCCCN(C)C)c1ccc2ccccc2c1 (racemic) [Compound 81] | 1.89 µg/mL (≈ 3.16 µM) | 9.47 µg/mL (≈ 15.8 µM) | 4.75 µg/mL (≈ 7.95 µM) | 9.47 µg/mL (≈ 15.8 µM) | 1.89 µg/mL (≈ 3.16 µM) | – | – | – | –
4 | COc1nc2ccc(Br)cc2cc1C(c1ccccc1)C(O)(CCCCN1CCC(C)CC1)c1ccc2ccccc2c1 (racemic) [Compound 102] | 10.11 µg/mL (≈ 15.9 µM) | 10.11 µg/mL (≈ 15.9 µM) | 1.8 µg/mL (≈ 2.82 µM) | 2.02 µg/mL (≈ 3.17 µM) | 2.02 µg/mL (≈ 3.17 µM) | – | – | – | –
5 | COc1nc2ccc(Br)cc2cc1C(c1ccccc1)C(O)(CCCCN(C)C(C)C)c1ccccc1 (single isomer, unassigned) [Compound 89] | 11.2 µg/mL (≈ 19.9 µM) | 11.2 µg/mL (≈ 19.9 µM) | 2.24 µg/mL (≈ 3.99 µM) | 11.2 µg/mL (≈ 19.9 µM) | 8.9 µg/mL (≈ 15.8 µM) | – | – | – | –
6 | COc1nc2ccc(Br)cc2cc1C(c1ccccc1)C(O)(CCCCN1CCCCC1)CCC(C)C (single isomer, unassigned) [Compound 124] | 9 µg/mL (≈ 15.9 µM) | 1.79 µg/mL (≈ 3.15 µM) | 2.26 µg/mL (≈ 3.98 µM) | 3.58 µg/mL (≈ 6.31 µM) | 9 µg/mL (≈ 15.9 µM) | – | – | – | –
7 | CCN(CC)CCCCC(O)(CCc1ccccc1)C(c1ccccc1)c1cc2cc(Br)ccc2nc1OC (single isomer, unassigned) [Compound 132] | – | 2.09 µg/mL (≈ 3.54 µM) | 2.09 µg/mL (≈ 3.54 µM) | – | – | 11.76 µg/mL (≈ 19.9 µM) | – | – | –
8 | COc1nc2ccc(Br)cc2cc1C(c1ccccc1)C(O)(CCCCN1CCCCC1)CCc1ccccc1.Cl (single isomer, unassigned) [Compound 133] | – | 1.9 µg/mL | 2.13 µg/mL | – | – | 12 µg/mL | – | – | –
9 | COc1nc2ccc(Br)cc2cc1C(c1ccccc1)C(O)(CCCCN1CCCCC1)CCc1ccccc1 (single isomer, unassigned) [Compound 134] | – | 4.26 µg/mL (≈ 7.08 µM) | 2.13 µg/mL (≈ 3.54 µM) | – | – | 12 µg/mL (≈ 19.9 µM) | – | – | –
10 | COc1nc2ccc(Br)cc2cc1C(c1ccccc1)C(O)(CCCCN1CCNCC1)CCc1ccccc1 (single isomer, unassigned) [Compound 135] | – | 1.91 µg/mL (≈ 3.17 µM) | 2.4 µg/mL (≈ 3.98 µM) | – | – | 12.02 µg/mL (≈ 19.9 µM) | – | – | –
11 | COc1nc2ccc(Br)cc2cc1C(c1ccccc1)C(O)(CCCCN1CCNCC1)CCc1ccccc1 (single isomer, unassigned) [Compound 136] | – | 1.91 µg/mL (≈ 3.17 µM) | 2.4 µg/mL (≈ 3.98 µM) | – | – | 5.37 µg/mL (≈ 8.91 µM) | – | – | –
12 | COc1nc2ccc(Br)cc2cc1C(c1ccccc1)C(O)(CCCCN1CCC(N(C)C)CC1)CCc1ccccc1 (single isomer, unassigned) [Compound 139] | – | 4.56 µg/mL (≈ 7.07 µM) | 5.12 µg/mL (≈ 7.94 µM) | – | – | 12.86 µg/mL (≈ 19.9 µM) | – | – | –
13 | COc1nc2ccc(Br)cc2cc1C(c1ccccc1)C(O)(CCCCN1CCC(N(C)C)CC1)CCc1ccccc1 (single isomer, unassigned) [Compound 140] | – | 4.56 µg/mL (≈ 7.07 µM) | 4.56 µg/mL (≈ 7.07 µM) | – | – | 2.57 µg/mL (≈ 3.99 µM) | – | – | –
14 | COc1nc2ccc(Br)cc2cc1C(c1ccccc1)C(O)(CCCCN1CCN(C)CC1)CCc1cccc2ccccc12 (single isomer, unassigned) [Compound 142] | – | 2.65 µg/mL (≈ 3.97 µM) | 2.37 µg/mL (≈ 3.55 µM) | – | – | 2.37 µg/mL (≈ 3.55 µM) | – | – | –
15 | COc1nc2ccc(Br)cc2cc1C(c1ccccc1)C(O)(CCCCN(C)C)CCCc1ccccc1 (single isomer, unassigned) [Compound 144] | 1.82 µg/mL (≈ 3.16 µM) | 9.12 µg/mL (≈ 15.8 µM) | 2.29 µg/mL (≈ 3.98 µM) | 1.82 µg/mL (≈ 3.16 µM) | 1.82 µg/mL (≈ 3.16 µM) | – | – | – | –
16 | COc1nc2ccc(Br)cc2cc1C(c1ccccc1)C(O)(CCCCN(C)C)CCCc1ccccc1 (single isomer, unassigned) [Compound 145] | 9.12 µg/mL (≈ 15.8 µM) | 5.76 µg/mL (≈ 10 µM) | 2.29 µg/mL (≈ 3.98 µM) | 9.12 µg/mL (≈ 15.8 µM) | 5.13 µg/mL (≈ 8.91 µM) | – | – | – | –
17 | COc1nc2ccc(Br)cc2cc1C(c1ccccc1)C(O)(CCCCCN(C)C)c1ccccc1 (single isomer, unassigned) [Compound 154] | – | 1.75 µg/mL (≈ 3.2 µM) | 1.75 µg/mL (≈ 3.2 µM) | 8.68 µg/mL (≈ 15.9 µM) | 8.68 µg/mL (≈ 15.9 µM) | – | – | – | –
18 | COc1nc2ccccc2cc1C(c1ccccc1)C(O)(CCCCN(C)C)c1ccc2ccccc2c1 (centres unmarked) [Compound 37] | – | 2.0 µg/mL (≈ 3.96 µM) | 1.8 µg/mL (≈ 3.57 µM) | – | – | – | 10.1 µg/mL (≈ 20 µM) | – | –
19 | COc1nc2ccc(-c3ccco3)cc2cc1C(c1ccccc1)C(O)(CCCCN(C)C)c1ccc2ccccc2c1 (centres unmarked) [Compound 39] | – | 2.0 µg/mL (≈ 3.5 µM) | 3.6 µg/mL (≈ 6.31 µM) | – | – | – | 4.5 µg/mL (≈ 7.88 µM) | – | –
20 | COc1nc2ccccc2cc1C(c1ccc(-c2ccccc2)cc1)C(O)(CCCCN(C)C)c1ccc2ccccc2c1 (centres unmarked) [Compound 56] | – | 1.84 µg/mL (≈ 3.17 µM) | – | – | – | 5.81 µg/mL (≈ 10 µM) | – | 2.31 µg/mL (≈ 3.98 µM) | –
21 | COc1nc2ccccc2cc1C(c1ccc(-c2ccccc2)cc1)C(O)(CCCCN(C)C)c1ccc2ccccc2c1 (centres unmarked) [Compound 57] | – | 4.11 µg/mL (≈ 7.08 µM) | 2.31 µg/mL (≈ 3.98 µM) | – | – | 2.59 µg/mL (≈ 4.46 µM) | – | – | –
22 | CCN(CC)CCCCC(O)(CCc1cccc2ccccc12)C(c1ccccc1)c1cc2cc(Br)ccc2nc1OC (centres unmarked) [Compound 73] | – | – | – | – | – | – | 2.55 µg/mL (≈ 3.99 µM) | 2.55 µg/mL (≈ 3.99 µM) | 2.02 µg/mL (≈ 3.16 µM)
